According to publication PMC9691607 (Journal of medicinal chemistry, 2022):
pIC50: −log10 of the molar value.

What was measured:
[1] = target: T1, human HDAC6 (Homo sapiens, UniProt Q9UBN7); assay: HDAC6 inhibition assay; type: biochemical; details: selectivity index HDAC1/6
T1 sequence (Q9UBN7 1-1215): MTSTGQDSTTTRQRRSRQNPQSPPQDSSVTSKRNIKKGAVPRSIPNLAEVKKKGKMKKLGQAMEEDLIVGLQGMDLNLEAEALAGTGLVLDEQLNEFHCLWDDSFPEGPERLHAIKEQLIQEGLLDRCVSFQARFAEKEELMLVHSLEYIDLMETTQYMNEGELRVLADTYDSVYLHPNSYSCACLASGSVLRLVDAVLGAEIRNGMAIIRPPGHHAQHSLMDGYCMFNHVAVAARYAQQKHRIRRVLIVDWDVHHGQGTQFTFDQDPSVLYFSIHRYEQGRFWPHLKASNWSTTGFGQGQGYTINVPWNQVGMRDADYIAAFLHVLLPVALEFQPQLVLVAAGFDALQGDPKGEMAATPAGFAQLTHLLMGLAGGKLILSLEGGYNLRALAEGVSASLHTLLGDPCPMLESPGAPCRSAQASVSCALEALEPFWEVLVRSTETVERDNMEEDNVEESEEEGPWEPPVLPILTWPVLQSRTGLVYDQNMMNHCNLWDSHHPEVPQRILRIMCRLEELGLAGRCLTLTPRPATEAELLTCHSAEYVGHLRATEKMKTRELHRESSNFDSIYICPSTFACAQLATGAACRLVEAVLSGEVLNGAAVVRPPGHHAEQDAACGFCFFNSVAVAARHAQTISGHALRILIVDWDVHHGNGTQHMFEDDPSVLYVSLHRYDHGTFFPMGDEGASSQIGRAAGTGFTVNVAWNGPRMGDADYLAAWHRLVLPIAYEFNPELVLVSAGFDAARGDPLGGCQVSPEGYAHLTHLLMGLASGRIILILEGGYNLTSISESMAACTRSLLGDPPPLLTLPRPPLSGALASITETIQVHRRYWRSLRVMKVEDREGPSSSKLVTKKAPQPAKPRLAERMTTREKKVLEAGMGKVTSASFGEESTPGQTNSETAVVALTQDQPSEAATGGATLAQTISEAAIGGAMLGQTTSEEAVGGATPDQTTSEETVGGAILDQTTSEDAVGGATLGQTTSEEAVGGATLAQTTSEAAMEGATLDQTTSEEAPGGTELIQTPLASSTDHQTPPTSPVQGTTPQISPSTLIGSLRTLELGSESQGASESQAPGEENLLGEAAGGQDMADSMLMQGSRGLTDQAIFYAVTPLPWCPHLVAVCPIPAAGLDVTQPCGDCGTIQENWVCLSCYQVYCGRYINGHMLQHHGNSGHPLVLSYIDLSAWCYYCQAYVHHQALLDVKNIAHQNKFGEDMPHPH

[2] = test system: HDAC6; details: ref [47], cited from earlier work; for pIC50: read-out: HDAC6 IC50, Sandrone et al., different substrates; for SI (IC50 (HDAC1)/IC50 (HDAC6)): selectivity index HDAC1/6, Sandrone et al.
[3] = test system: HDAC1; details: read-out: HDAC1 IC50; Sandrone et al., different substrates; ref [47]; cited from earlier work
[4] = target: HDAC4 (Homo sapiens, UniProt P56524); assay: HDAC4 inhibition assay; type: biochemical
[5] = test system: HL60; assay: Combinatorial drug screening with decitabine, HL60; type: cell-based; details: combination with decitabine, HL60, 72 h co-treatment
[6] = test system: HL60 cells; assay: Annexin V / PI apoptosis assay; type: cell-based; details: 1 μM or 5 μM, 48 h, annexin V and propidium iodide, flow cytometry
[7] = test system: HL60 cells; assay: Immunoblotting of acetyl-α-tubulin and acetyl-histone H3; type: cell-based; details: 24 h; for acetylation of histone 3 (Ac-H3) / acetylation of α-tubulin: IC12.5-IC75 concentrations (ricolinostat at its IC50)
[8] = test system: MOLM13; assay: Combinatorial drug screening with decitabine, MOLM13; type: cell-based; details: combination with decitabine, MOLM13, 72 h co-treatment
[9] = test system: leukemia cell lines; type: cell-based; details: broad range of leukemia cell lines from therapy refractory subgroups; two healthy human fibroblast controls; values in Supplementary Table S1
[10] = test system: Jurkat; assay: Combinatorial drug screening with decitabine, Jurkat; type: cell-based; details: combination with decitabine, 72 h co-treatment
[11] = test system: HAL01; assay: Combinatorial drug screening with decitabine, HAL01; type: cell-based; details: combination with decitabine, HAL01, 72 h co-treatment

Sequence of HDAC4 (P56524 627-1084 limits assumed): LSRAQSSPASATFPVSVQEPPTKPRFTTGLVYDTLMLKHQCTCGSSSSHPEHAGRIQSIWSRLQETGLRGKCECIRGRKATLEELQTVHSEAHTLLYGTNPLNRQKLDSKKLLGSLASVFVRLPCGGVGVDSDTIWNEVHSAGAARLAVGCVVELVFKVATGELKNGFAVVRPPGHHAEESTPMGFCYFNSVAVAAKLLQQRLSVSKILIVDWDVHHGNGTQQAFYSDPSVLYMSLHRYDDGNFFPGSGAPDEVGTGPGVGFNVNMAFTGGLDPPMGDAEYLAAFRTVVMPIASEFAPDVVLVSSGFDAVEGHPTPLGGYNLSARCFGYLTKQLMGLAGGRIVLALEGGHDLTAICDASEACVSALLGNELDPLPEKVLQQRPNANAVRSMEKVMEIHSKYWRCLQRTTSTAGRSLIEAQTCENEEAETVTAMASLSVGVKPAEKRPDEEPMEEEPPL

Cc1cc(C)cc(C(=O)N(CC(=O)NCc2ccccc2)Cc2ccc(C(=O)NO)cc2F)c1 [Compound 10g, 4-({N-[(Benzylcarbamoyl)methyl]-1-(3,5-dimethylphenyl)formamido}methyl)-3-fluoro-N-hydroxybenzamide]
SI (IC50 (HDAC1)/IC50 (HDAC6)) [1]: 6–24

O=C(NO)c1ccccc1 [N-hydroxybenzamide]
pIC50 [2]: 5.87 | SI (IC50 (HDAC1)/IC50 (HDAC6)) [2]: 19 | pIC50 [3]: 4.60

CN(C)c1ccc(C(=O)N(CC(=O)NCc2ccccc2)Cc2ccc(C(=O)NO)cc2)cc1 [DDK137]
pIC50 [4]: 5.57

CC(C)c1ccccc1C(=O)N(CC(=O)NC(C)(C)C)Cc1ccc(C(=O)NO)cc1F [Compound 10p, 4-({N-[(tert-Butylcarbamoyl)methyl]-1-[2-(propan-2-yl)phenyl]formamido}methyl)-3-fluoro-N-hydroxybenzamide]
ZIP synergy score [5]: 7.78 | induction of apoptosis [6]: weaker (in comparison to 10h) although significant (p < 0.05) apoptosis induction | acetylation of histone 3 (Ac-H3) [7]: no effect on Ac-H3 levels | acetylation of α-tubulin [7]: induced acetylation of α-tubulin | ZIP synergy score [8]: 7.18 | cellular viability of leukemia cell lines [9]: IC50 values ranging in the high micromolar concentration

O=C(CCCCCCNC(=O)c1cnc(N(c2ccccc2)c2ccccc2)nc1)NO [Ricolinostat, ricolinostat, reference compound]
acetylation of histone 3 (Ac-H3) [7]: lower Ac-H3 levels than observed for 10h | acetylation of α-tubulin [7]: prominent acetylation of α-tubulin

O=C(NO)c1cccc(F)c1 [3-fluoro-N-hydroxybenzamide]
pIC50 [2]: 6.34 | SI (IC50 (HDAC1)/IC50 (HDAC6)) [2]: 65 | pIC50 [3]: 4.53

CN(C)c1ccc(C(=O)N(CC(=O)NCc2ccccc2)Cc2ccc(C(=O)NO)cc2F)cc1 [Compound 10h, 4-({N-[(Benzylcarbamoyl)methyl]-1-[4-(dimethylamino)phenyl]formamido}methyl)-3-fluoro-N-hydroxybenzamide]
ZIP synergy score [5]: 25.08 | induction of apoptosis [6]: significant (p < 0.0001) increase in apoptotic cells | ZIP synergy score [10]: −0.87 | ZIP synergy score [11]: 1.18 | acetylation of histone 3 (Ac-H3) [7]: dose-dependent increase | acetylation of α-tubulin [7]: dose-dependent increase | acetylation of H3 on co-administration with decitabine ([7]; combination with decitabine vs mono-treatment): strong induction of acetylation of H3 as compared to mono-treatment | ZIP synergy score [8]: 27.44 | cellular viability of leukemia cell lines [9]: markedly outperformed CI994 and ricolinostat
